Experimental data published in paper PMC10518255, “A first-in-class pan-lysyl oxidase inhibitor impairs stromal remodeling and enhances gemcitabine response and survival in pancreatic cancer” (Nature Cancer, 2023).
Where “and” joins values, the source holds several entries; their conditions need not be identical. Equal entries are not always repeated.

System: APMA human PDX tumors
Assay: APMA human PDX model, bulk modulus by unconfined compression (Extended Data Fig. 5j)
Format: in vivo, mouse
Design: Bulk modulus (stiffness) by unconfined compression testing: unit: kPa (bulk elastic modulus, slope of stress–strain curve)
Details: for Bulk modulus (stiffness) by unconfined compression testing: Extended Data 5J, endpoint human PDX tumours (second model), individual animals
Experimental: Unconfined compression of in vivo tissue samples was carried out on 2–3-mm cross-sectional slices using a TA Instruments Dynamic Hybrid Rheometer (DHR-3, TA Instruments). Tissue samples were placed between upper and lower parallel plate geometries. A constant linear compressive rate of 5 µm s^−1 was applied to the samples and axial force (N) and gap (mm) were collected every 0.01 s. Data were processed and a stress–strain curve for each replicate was obtained. Bulk elastic modulus (kPa) was obtained as the gradient of the linear region of the stress–strain curve corrected for cross-sectional area of sample. Data points represent individual biological replicates.
Subcutaneous PDX studies were performed by implanting early passage PDX pieces (~4 mm^3) or TKCC10 CCs (1.5 × 10^6 cells per mouse in 100 μl PBS/Matrigel 1:1) into female (PDX) or male (TKCC10) 8-week-old immunocompromised nude Balb/c-Fox1nuAusb mice subcutaneously on the left flank. For the duration of the study, mice were kept in conventional caging with environmental enrichment, access to standard chow, water ad libitum and 12-h light–dark cycle at ambient temperature and humidity. […] Tumor size was monitored every second day by calipers. Tumor volume was calculated using the formula (length × width^2)/2. […]
Extended Data Fig. 5 PXS-5505 in combination with gemcitabine in vivo. a. […] Signal is defined as the enzyme activity in the aorta, while noise is measured in the presence of a high concentration (300 µM) BAPN to abolish any lysyl oxidase family activity. […] FITC-dextran (molecular weight: 10 kDa) signal quantification from KPC tumor end point from each treatment group (vehicle n = 3 biologically independent animals, PXS-5505 n = 5 biologically independent animals, Gem n = 5 biologically independent animals, PXS-5505 + Gem n = 5 biologically independent animals). […] P-values determined by Welchs t-test. […] Quantification of red birefringent (mature) collagen fibers from human PDXs at end point after 3 cycles of treatment, treated as indicated. […] P values determined by Welchs t-test. g. […]

Row | Structure (SMILES) | tumor stiffness (APMA human PDX, three rounds of treatment) | Bulk modulus (stiffness) by unconfined compression testing
1 | Nc1ccn([C@@H]2O[C@H](CO)[C@@H](O)C2(F)F)c(=O)n1 [Gem, gemcitabine] | increase in tumor stiffness | 269.794 and 256.26 and 76.734 and 111.802 and 206.587 and 133.731 and 307.593 and 168.407 and 179.416 and 246.898
2 | Cl.Cl.NC/C=C(\F)CS(=O)(=O)c1cccc2cccnc12.O [PXS-5505, (Z)-3-fluoro-4-(quinolin-8-ylsulfonyl)but-2-en-1-amine dihydrochloride monohydrate] | – | 1.617 and 12.779 and 4.886 and 20.468 and 19.194 and 15.624 and 4.142 and 7.216 and 19.443
